Reference: patent US7049490B2, “Gibberellin 3β-hydroxylase genes of rice and uses thereof” (priority 1999, dated 2006)
Entries after “also recorded” stand apart in the source; their conditions may differ.

Columns and labels:
Os3β-2 fusion protein = target: T1, Os3β-2 fusion protein (Oryza sativa subsp. japonica, UniProt Q9FU53, G53R); assay: Enzymatic activity assay of purified recombinant Os3β-2 fusion protein with gibberellin substrates, products identified by GC-MS; assay type: biochemical, rice (Oryza sativa); settings: amylose-resin purified Os3β-2 fusion protein, cofactors ascorbate, ferrous iron, 2-ketoglutarate
T1 construct: a full-length cDNA is synthesized by RT-PCR using primers provided with restriction enzyme sites and subcloned into multi-cloning sites of the pMAL-c2 expression vector; made in house; host or cells: E. coli JM109
Description: (§1) cDNAs for the predicted protein-coding regions of the Os3β-1 and Os3β-2 genes were each inserted into the pMAL-c2 expression vector (New England Biolabs, Beverly, Mass.) in the sense orientation to obtain a fusion translation product. The constructs thus obtained, pMAL-Os3β-1 and pMAL-Os3β-2, were expressed in E. coli strain JM109. Bacterial cells were cultured by shaking in 2×YT medium containing 100 mg/L ampicillin at 37° C. overnight. Then, the culture was diluted 100-fold with a fresh 2×YT medium containing 100 mg/L ampicillin, and further cultured with shaking at 30° C. Four hours later, IPTG was added to the culture to a final concentration of 1 mM, and the mixture was incubated with shaking at 17° C. for further 18 h. After the completion of culturing, the bacterial cells were collected, washed with a washing buffer (containing 50 mM Tris-HCl (pH 8.0), 10% (w/v) glycerol, and 2 mM DTT), suspended in the washing buffer containing lysozyme (1 mg/ml), and allowed to stand for 30 min on ice.
(§2) The cell lysate thus obtained was sonicated, centrifuged, and the supernatant was subjected to SDS-PAGE to confirm the expression of the fusion protein. For the assay of enzymatic activity of the Os3β-1 fusion protein, the supernatant was incubated with various gibberellins and cofactors (ascorbate, ferrous iron, and 2-ketoglutarate). For the activity assay of the Os3β-2 fusion protein, the supernatant was purified on a column of amylose resin according to the method described in the manual, and the purified protein thus obtained was similarly incubated as described above. Metabolized gibberellins were identified using GC-MS.

Os3β-1 fusion protein = target: T2, Os3β-1 fusion protein (Oryza sativa subsp. japonica, UniProt Q6AT12, A27T/D23H/DEL15-17/DUP228-228); assay: Enzymatic activity assay of recombinant Os3β-1 fusion protein with gibberellin substrates, products identified by GC-MS; assay type: biochemical, rice (Oryza sativa); settings: E. coli supernatant with Os3β-1 fusion protein, cofactors ascorbate, ferrous iron, 2-ketoglutarate
T2 construct: a full-length cDNA is synthesized by RT-PCR using primers provided with restriction enzyme sites and subcloned into multi-cloning sites of the pMAL-c2 expression vector; made in house; host or cells: E. coli JM109
Description: as §1, §2

T1 sequence (Q9FU53 whole entry G53R, the tested form may be a part): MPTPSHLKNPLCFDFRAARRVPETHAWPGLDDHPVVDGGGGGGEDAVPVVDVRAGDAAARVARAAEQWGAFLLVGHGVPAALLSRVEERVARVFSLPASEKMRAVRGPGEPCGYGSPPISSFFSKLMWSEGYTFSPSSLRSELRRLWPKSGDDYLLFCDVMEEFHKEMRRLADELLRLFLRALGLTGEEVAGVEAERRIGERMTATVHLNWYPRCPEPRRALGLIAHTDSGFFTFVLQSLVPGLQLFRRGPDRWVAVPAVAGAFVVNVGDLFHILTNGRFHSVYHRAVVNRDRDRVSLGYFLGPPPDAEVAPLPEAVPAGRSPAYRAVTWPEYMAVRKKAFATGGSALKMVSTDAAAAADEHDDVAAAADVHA
T2 sequence (Q6AT12 other isoform, or with tags, fused parts or gaps DEL15-17/D23H/A27T/DUP228-228): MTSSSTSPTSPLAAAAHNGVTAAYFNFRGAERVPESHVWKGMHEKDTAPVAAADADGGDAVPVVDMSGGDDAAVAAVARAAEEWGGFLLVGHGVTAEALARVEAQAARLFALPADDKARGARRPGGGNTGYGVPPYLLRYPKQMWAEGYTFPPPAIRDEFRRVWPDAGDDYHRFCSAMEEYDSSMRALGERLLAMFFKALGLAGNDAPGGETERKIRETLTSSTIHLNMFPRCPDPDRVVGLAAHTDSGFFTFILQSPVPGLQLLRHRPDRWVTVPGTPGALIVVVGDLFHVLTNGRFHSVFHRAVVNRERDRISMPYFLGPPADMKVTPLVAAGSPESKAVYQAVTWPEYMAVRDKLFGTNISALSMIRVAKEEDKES

Structure (SMILES)	Metabolized gibberellins (reaction products) from the substrate (Os3β-2 fusion protein)	Metabolized gibberellins (reaction products) from the substrate (Os3β-1 fusion protein)
C=C1C[C@]23C[C@@]1(O)CC[C@H]2[C@@]12CCC[C@@](C)(C(=O)O1)[C@H]2[C@@H]3C(=O)O [GA20]	produced the corresponding 3β-hydroxylated gibberellins (GA3, GA4, GA1, and GA38); also recorded: production of the corresponding 3β-hydroxylated gibberellins, GA3, GA4, GA1, and GA38, respectively	–
C=C1C[C@]23C[C@@]1(O)CC[C@H]2[C@@]12CCC[C@@](C)(C(=O)OC1)[C@H]2[C@@H]3C(=O)O [GA44]	produced the corresponding 3β-hydroxylated gibberellins (GA3, GA4, GA1, and GA38); also recorded: production of the corresponding 3β-hydroxylated gibberellins, GA3, GA4, GA1, and GA38, respectively	only the corresponding 3β-hydroxylated gibberellins (GA3 and GA88) were obtained; also recorded: produced the corresponding 3β-hydroxylated gibberellins, GA3 and GA88, respectively
C=C1C[C@]23C[C@H]1CC[C@H]2[C@@]12CCC[C@@](C)(C(=O)O1)[C@H]2[C@@H]3C(=O)O [GA9]	produced the corresponding 3β-hydroxylated gibberellins (GA3, GA4, GA1, and GA38); also recorded: production of the corresponding 3β-hydroxylated gibberellins, GA3, GA4, GA1, and GA38, respectively	synthesis of GA4 (3β-hydroxylation), GA7 (2,3-unsaturation and 3β-hydroxylation), and GA34 (2β-hydroxylation) were confirmed; also recorded: catalyzed the production of GA4 (3β-hydroxylation), GA7 (2,3-unsaturation and 3β-hydroxylation), and GA34 (2β-hydroxylation)
C=C1C[C@]23C[C@@]1(O)CC[C@H]2[C@@]12CC=C[C@@](C)(C(=O)O1)[C@H]2[C@@H]3C(=O)O [GA5]	produced the corresponding 3β-hydroxylated gibberellins (GA3, GA4, GA1, and GA38); also recorded: production of the corresponding 3β-hydroxylated gibberellins, GA3, GA4, GA1, and GA38, respectively	only the corresponding 3β-hydroxylated gibberellins (GA3 and GA88) were obtained; also recorded: produced the corresponding 3β-hydroxylated gibberellins, GA3 and GA88, respectively
